Each structure is given as a SMILES string.

Assay [1] concerns the target T1, Serine/threonine-protein kinase Nek10 (Homo sapiens) (UniProt Q6ZWH5).
T1 sequence (whole entry): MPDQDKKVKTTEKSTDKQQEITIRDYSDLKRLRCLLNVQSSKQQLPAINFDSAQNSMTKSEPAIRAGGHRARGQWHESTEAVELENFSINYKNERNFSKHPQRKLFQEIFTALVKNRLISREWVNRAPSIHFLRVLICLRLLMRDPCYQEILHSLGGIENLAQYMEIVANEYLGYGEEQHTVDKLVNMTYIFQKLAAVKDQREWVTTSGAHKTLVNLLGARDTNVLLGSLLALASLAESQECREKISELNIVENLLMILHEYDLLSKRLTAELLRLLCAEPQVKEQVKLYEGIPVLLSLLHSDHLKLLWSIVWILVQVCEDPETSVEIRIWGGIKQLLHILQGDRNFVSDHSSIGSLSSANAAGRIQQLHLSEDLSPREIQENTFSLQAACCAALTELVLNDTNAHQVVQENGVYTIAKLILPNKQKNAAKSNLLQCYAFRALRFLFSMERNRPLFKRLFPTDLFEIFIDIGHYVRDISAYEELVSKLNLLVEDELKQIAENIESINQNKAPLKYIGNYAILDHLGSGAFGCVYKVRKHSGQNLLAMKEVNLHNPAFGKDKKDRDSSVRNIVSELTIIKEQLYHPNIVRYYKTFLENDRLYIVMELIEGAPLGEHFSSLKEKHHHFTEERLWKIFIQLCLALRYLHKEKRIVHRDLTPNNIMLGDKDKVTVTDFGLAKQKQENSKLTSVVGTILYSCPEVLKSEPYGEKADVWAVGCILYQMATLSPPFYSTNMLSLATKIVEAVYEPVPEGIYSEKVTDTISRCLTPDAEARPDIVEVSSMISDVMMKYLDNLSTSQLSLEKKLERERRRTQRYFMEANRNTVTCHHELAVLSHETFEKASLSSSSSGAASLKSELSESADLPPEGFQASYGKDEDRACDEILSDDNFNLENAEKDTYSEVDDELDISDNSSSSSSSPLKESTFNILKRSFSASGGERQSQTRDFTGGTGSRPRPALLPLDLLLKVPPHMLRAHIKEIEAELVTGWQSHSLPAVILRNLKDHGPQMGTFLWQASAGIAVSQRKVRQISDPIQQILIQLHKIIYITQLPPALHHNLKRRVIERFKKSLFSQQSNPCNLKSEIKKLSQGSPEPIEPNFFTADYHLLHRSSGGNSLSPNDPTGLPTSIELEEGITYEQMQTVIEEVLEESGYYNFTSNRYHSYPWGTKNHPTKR
Nature of the assay: Selectivity interaction (KinomeScan (DiscoverX)) EUB0000695a NEK10. The settings on record: at 100 nM.

The target of assay [2] is Dual specificity mitogen-activated protein kinase kinase 1 (Homo sapiens, UniProt Q02750). Nature of the assay: Selectivity interaction (Kinase panel (Invitrogen)) EUB0000639a MAP2K1. As to conditions: at 200 nM.
Assay [3] has as its target T2, Serine/threonine-protein kinase TBK1 (Homo sapiens) (UniProt Q9UHD2).
T2 sequence (whole entry): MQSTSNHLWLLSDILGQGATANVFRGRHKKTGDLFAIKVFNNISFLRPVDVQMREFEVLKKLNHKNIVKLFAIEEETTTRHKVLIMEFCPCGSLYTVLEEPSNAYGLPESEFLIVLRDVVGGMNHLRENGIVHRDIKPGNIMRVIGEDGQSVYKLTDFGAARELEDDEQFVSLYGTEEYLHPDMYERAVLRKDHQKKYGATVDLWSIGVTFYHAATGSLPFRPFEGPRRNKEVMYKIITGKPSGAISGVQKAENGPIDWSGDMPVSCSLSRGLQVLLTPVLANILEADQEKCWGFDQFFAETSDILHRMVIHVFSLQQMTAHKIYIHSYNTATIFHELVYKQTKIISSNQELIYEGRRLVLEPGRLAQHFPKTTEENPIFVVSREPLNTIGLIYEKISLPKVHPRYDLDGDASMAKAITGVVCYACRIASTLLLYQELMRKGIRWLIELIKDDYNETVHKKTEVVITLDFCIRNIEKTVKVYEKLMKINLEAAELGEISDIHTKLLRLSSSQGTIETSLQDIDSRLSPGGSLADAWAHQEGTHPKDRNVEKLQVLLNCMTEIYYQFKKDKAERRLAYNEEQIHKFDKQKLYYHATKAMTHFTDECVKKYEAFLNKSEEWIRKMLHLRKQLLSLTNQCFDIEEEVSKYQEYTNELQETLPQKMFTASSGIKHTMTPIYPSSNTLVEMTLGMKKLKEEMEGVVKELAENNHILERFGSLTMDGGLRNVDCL
Nature of the assay: Selectivity interaction (KinomeScan (DiscoverX)) EUB0000618a TBK1. The settings on record: at 10 µM.

Chain of Dual specificity mitogen-activated protein kinase kinase 1 (Q02750 whole entry): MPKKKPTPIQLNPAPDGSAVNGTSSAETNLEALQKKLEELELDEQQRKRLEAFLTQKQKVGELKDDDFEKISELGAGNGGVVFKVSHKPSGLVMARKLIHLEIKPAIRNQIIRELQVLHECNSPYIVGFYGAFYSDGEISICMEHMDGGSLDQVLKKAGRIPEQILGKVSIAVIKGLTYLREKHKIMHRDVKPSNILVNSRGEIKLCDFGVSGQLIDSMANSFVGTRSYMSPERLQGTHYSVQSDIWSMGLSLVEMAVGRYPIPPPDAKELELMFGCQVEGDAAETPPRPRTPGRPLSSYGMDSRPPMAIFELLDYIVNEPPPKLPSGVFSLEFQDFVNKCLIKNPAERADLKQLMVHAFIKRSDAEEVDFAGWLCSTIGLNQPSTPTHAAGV

In turn, `Cc1cc(F)c(C(=O)Nc2cccc(-c3nncn3C(C)C)n2)cc1-n1cnc(C2CC2)c1` yielded a % of control in assay [1] of 84%.

Consider `CC[C@@H]1[C@H](F)C(=O)N[C@@H]1COc1nccc2cc(C(N)=O)c(OC)cc12` [ZIMLOVISERTIB], for which, in assay [2], the % of inhibition came out at 9.31%.

In assay [3], `O[C@H]1CC[C@H](Nc2ncc3nc(Nc4c(F)cc(F)cc4F)n([C@H]4CCOC4)c3n2)CC1` returned a % of control of 74%.

Source of the values: ChEMBL document CHEMBL5465560, “Selectivity Literature for EUbOPEN Chemogenomic Library” (2024).
